Source: US9517241B2, “Amelioration of intestinal fibrosis and treatment of Crohn's disease” (THE REGENTS OF THE UNIVERSITY OF MICHIGAN, priority 2013, dated 2016)

What was measured:
Assay type in all cases: cell-based, human
Fn-1 gene expression = test: Matrix stiffness model: expression of Fn-1; conditions: CARD-024 treatment
Protocol: (§1) Cells were plated at 30-40% confluence. To stimulate a fibrotic phenotype, Ccd-18co cells were serum-starved for 24 h prior to treatment with 1 ng/ml TGFβ or 1 ng/ml TGFβ and increasing doses of CARD-024 (10-1000 nM) for 48 h. Given ethanol was used to dilute CARD-024, ethanol was added to the untreated and TGFβ treated cells to a final concentration of 0.1%. For stiffness experiments, low-passage number Ccd-18co cells were seeded at 1×10^5 cells/ml on 6-well plates containing collagen-coated acrylamide gels corresponding to soft (4.3 kPa, 0.02% bisacrylamide) or stiff (28.1 kPa, 0.16%) matrices. Cells were allowed to attach to the matrix for 4 h and then the gels were transferred to new wells to avoid paracrine signaling from cells attached to the plastic well bottom. For the CARD-024 stiffness experiments, cells were plated as described above and serum-starved overnight prior to treatment with 1000 nM of CARD-024 diluted in 100% ethanol for 24 h. The 1000 nM CARD-024 dose was selected from the results of the TGFβ experiments. Since ethanol was used to dilute CARD-024, ethanol was added to untreated cells to a final concentration of 0.1%.Experiments were performed on early (4 to 7) passage cells. Cultures were routinely assayed for mycoplasma contamination.
(§2) Prior to seeding with colonic myofibroblasts, the acrylamide gels were collagen-coated. […]

[1] = system: phosphorylation of focal adhesion kinase (FAK); test: Matrix stiffness model: pFAK protein expression (Western blot); conditions: high stiffness matrix, 1000 nM CARD-024
Protocol: (§3) Cells were plated at 30-40% confluence. To stimulate a fibrotic phenotype, Ccd-18co cells were serum-starved for 24 h prior to treatment with 1 ng/ml TGFβ or 1 ng/ml TGFβ and increasing doses of CARD-024 (10-1000 nM) for 48 h. Given ethanol was used to dilute CARD-024, ethanol was added to the untreated and TGFβ treated cells to a final concentration of 0.1%. For stiffness experiments, low-passage number Ccd-18co cells were seeded at 1×10^5 cells/ml on 6-well plates containing collagen-coated acrylamide gels corresponding to soft (4.3 kPa, 0.02% bisacrylamide) or stiff (28.1 kPa, 0.16%) matrices. Cells were allowed to attach to the matrix for 4 h and then the gels were transferred to new wells to avoid paracrine signaling from cells attached to the plastic well bottom. […]
pFAK was detected using a rabbit polyclonal phosphospecific antibody against Tyr-397-FAK (Invitrogen) at 1:5000. […] After washing, the membranes were incubated with the appropriate secondary antibody (anti-mouse IgG+HRP or anti-rabbit IgG+HRP, Amersham, Piscataway, N.J.) for 1 h at room temperature and the signal was detected by the Pierce detection system (Pierce, Rockford, Ill.). Autoradiographs were scanned and quantitated using ImageJ analysis software (NIH, Bethesda, Md.).

[2] = system: fibrogenic genes (col1A1, Fn1, MLCK, ET-1) in Ccd-18co colonic myofibroblasts; test: TGFβ-stimulated colonic myofibroblasts, fibrogenic gene expression; conditions: TGFβ1-stimulated Ccd-18co colonic myofibroblasts
Protocol: as §3
(§4) RNA from Ccd-18co cells was extracted using the RNeasy kit (Qiagen, Valencia, Calif.). cDNA was generated by reverse transcription of 1 μg of total RNA using the Superscript First Strand RT kit (Invitrogen, Carlsbad, Calif.). Quantitative real-time PCR (qPCR) was performed for MLCK, IL-1β, PTGS2, ET-1, and GAPDH with the TaqMan gene expression assays (ABI, Foster City, Calif.) on a Bio-Rad iCycler real-time PCR system. […] Gene expression was normalized to GAPDH as the endogenous control, and fold-changes (RQ) relative to untreated controls were calculated using the […] (Livak and Schmittgen, 2001).

[3] = system: αSMA protein expression in Ccd-18co cells; test: TGFβ-stimulated colonic myofibroblasts, αSMA protein expression (Western blot)
Protocol: Colonic human myofibroblast Ccd-18co cells (CRL-1459 from ATCC) were cultured in alpha-MEM (Invitrogen, Carlsbad, Calif.) supplemented with 10% fetal bovine serum and sub-cultured weekly.
Cells were plated at 30-40% confluence. To stimulate a fibrotic phenotype, Ccd-18co cells were serum-starved for 24 h prior to treatment with 1 ng/ml TGFβ or 1 ng/ml TGFβ and increasing doses of CARD-024 (10-1000 nM) for 48 h. Given ethanol was used to dilute CARD-024, ethanol was added to the untreated and TGFβ treated cells to a final concentration of 0.1%. […]
(§5) Total protein was separated by SDS polyacrylamide gel electrophoresis (Bio-Rad,) with prestained protein markers loaded for molecular mass determination (Invitrogen, Carlsbad, Calif.), and transferred to PVDF membranes (Amersham Biosciences, Piscataway, N.J.). Membranes were blocked in 5% milk/TBST solution for 1 h at room temperature or overnight at 4° C. α-smooth muscle actin was detected by incubating the membrane overnight at 4° C. with mouse anti-human monoclonal antibody (Sigma, St. Louis, Mo.) at 1:5000 dilution in 5% milk/TBST.
(§6) pFAK was detected using a rabbit polyclonal phosphospecific antibody against Tyr-397-FAK (Invitrogen) at 1:5000. […] Autoradiographs were scanned and quantitated using ImageJ analysis software (NIH, Bethesda, Md.).

[4] = system: Ccd-18co colonic myofibroblasts; test: Matrix stiffness model: confocal immunofluorescence of focal adhesions (vinculin) and actin stress fibers (phalloidin); conditions: stiff substrate, 1000 nM CARD-024
Protocol: as §1, with “Since ethanol was used to dilute CARD-024, ethanol was added to untreated cells to a final concentration of 0.1%.Experiments were performed on early (4 to 7) passage cells. Cultures were routinely assayed for mycoplasma contamination.” left out
Expression of activated myofibroblast markers was analyzed by confocal immunofluorescence microscopy using the Olympus FluoView™ FV500/IX system (Olympus America, Center Valley, Pa.) at the University of Michigan Microscopy and Image Analysis Laboratory. […]

colA1 gene expression = test: Matrix stiffness model: expression of colA1; conditions: CARD-024 treatment
Protocol: as §1, §2

MLCK gene expression = test: Matrix stiffness model: QRT-PCR of MLCK; conditions: high stiffness substrate, 1000 nM CARD-024
Protocol: as §3, §4

IL-1β expression = test: Matrix stiffness model: QRT-PCR of IL-1β; conditions: 1000 nM CARD-024, relative to untreated/low stiffness
Protocol: as §3, §4

ET-1 gene expression = test: Matrix stiffness model: QRT-PCR of ET-1; conditions: high stiffness conditions, 1000 nM CARD-024
Protocol: as §3, §4

[5] = system: αSMA protein expression in colonic myofibroblasts; test: Matrix stiffness model: αSMA protein expression (Western blot); conditions: high stiffness substrate, 1000 nM CARD-024
Protocol: as §3, with “matrices.” for “matrices. Cells were allowed to attach to the matrix for 4 h and then the gels were transferred to new wells to avoid paracrine signaling from cells attached to the plastic well bottom.”
as §5, §6

[6] = system: Ccd-18co colonic myofibroblasts; test: Matrix stiffness model: cell morphology, cell length and cell count (microscopy); conditions: for dendrite length: 1000 nM CARD-024, 24 h
Protocol: as §1
Collagen-coated polyacrylamide gels corresponding to physiological stiffnesses of 2.6 kPa to 28.1 kPa were generated using varying ratios of 40% acrylamide to 2% bisacrylamide (Bio-Rad, Hercules, Calif.) (Aplin and Hughes, 1981; Pelham and Wang, 1998). Specifically, an aqueous solution of 0.10% ammonium persulfate (Bio-Rad), 0.15% TEMED (Bio-Rad), 40% acrylamide solution was supplemented with 0.01%, 0.02%, 0.08%, or 0.16% bisacrylamide. The acrylamide gels were polymerized on a NaOH treated, amino-silanated (3-aminopropyltriethoxysilane), and glutaraldehyde treated 25 mm round glass coverslip. […] of each acrylamide/bisacrylamide solution was filter sterilized and pipetted unto a chloro-silanated glass surface treated with dichlorodimethylsilane (DCDMS) and a treated coverslip was inverted onto the acrylamide/biacrylamide solution. The acrylamide matrix was allowed to polymerize for 10 min between the two surfaces and transferred to a 6-well tissue culture plate containing sterile PBS. As determined by a series of stability experiments (data not shown), the acrylamide gels were stable for at least 1 month. […]
Cells were photographed using a Leica (Leica Microsystems Inc., Buffalo Grove, Ill.) DMIRB inverted microscope and photographed with an Olympus DP-30 camera (Center Valley, Pa.). Cell length was determined from photomicrographs using ImageJ (NIH, Bethesda, Md.). Cell count was determined from a minimum of 3 representative photographs of a 100× magnification field. […]

[7] = system: PTGS2 (which encodes the COX-2 enzyme); test: Matrix stiffness model: QRT-PCR of PTGS2; conditions: low and high stiffness, 1000 nM CARD-024
Protocol: as §3, §4

## C=C1/C(=C\C=C2/CCC[C@]3(C)[C@@H]([C@H](C)CC[C@@H](CC)C(C)C)CC[C@@H]23)C[C@@H](O)C[C@@H]1O [CARD-024, (1S,3R)-(5Z,7E)-9,10-Secositosta-5,7,10(19)-triene-1,3-diol]
Fn-1 gene expression
  Fn-1 expression: did not repress
[1]
  FAK phosphorylation: inhibited FAK phosphorylation
[2]
  fibrogenic gene expression: minimal impact on fibrogenic gene expression
[3]; Ccd-18co cells stimulated with TGFβ, 10-1000 nM CARD-024
  αSMA protein expression, dose response: attenuated αSMA protein expression in a dose-responsive manner
[3]; Ccd-18co cells, 1 ng/ml TGFβ, 1000 nM CARD-024, 48 h, normalized to GAPDH, p=0.012
  attenuation of αSMA protein expression: 2 fold
[4]
  focal adhesions (vinculin staining): inhibited focal adhesion maturation
colA1 gene expression
  colA1 expression: did not repress
MLCK gene expression
  MLCK expression: significantly repressed MLCK expression to levels comparable to untreated cells on the low stiffness substrate
IL-1β expression; high stiffness, p=0.002
  induction of IL-1β expression: 1.8 fold
IL-1β expression; low stiffness
  induction of IL-1β expression: 4 fold
ET-1 gene expression
  ET-1 expression: significantly repressed ET-1 expression in high stiffness conditions to levels indistinguishable from low stiffness conditions
[5]
  αSMA expression: repressed αSMA expression on the high stiffness substrate to levels indistinguishable from the low stiffness substrate
[6]; high stiffness (28.1 kPa) matrix
  dendrite length: 145 μm
[6]; high stiffness substrate, 1000 nM CARD-024
  cell morphology: repressed the effects of matrix stiffness on cell morphology
[6]; low stiffness (4.3 kPa) matrix
  dendrite length: 146 μm
[6]; stiff matrix (28.1 kPa), 1000 nM CARD-024, not significant
  reduction in cell number compared to untreated cells: 50%
[7]
  PTGS2 expression: induced PTGS2 at both low and high stiffness
